Molecular target: T1, Renin (Homo sapiens, UniProt P00797)
T1 sequence (P00797 whole entry): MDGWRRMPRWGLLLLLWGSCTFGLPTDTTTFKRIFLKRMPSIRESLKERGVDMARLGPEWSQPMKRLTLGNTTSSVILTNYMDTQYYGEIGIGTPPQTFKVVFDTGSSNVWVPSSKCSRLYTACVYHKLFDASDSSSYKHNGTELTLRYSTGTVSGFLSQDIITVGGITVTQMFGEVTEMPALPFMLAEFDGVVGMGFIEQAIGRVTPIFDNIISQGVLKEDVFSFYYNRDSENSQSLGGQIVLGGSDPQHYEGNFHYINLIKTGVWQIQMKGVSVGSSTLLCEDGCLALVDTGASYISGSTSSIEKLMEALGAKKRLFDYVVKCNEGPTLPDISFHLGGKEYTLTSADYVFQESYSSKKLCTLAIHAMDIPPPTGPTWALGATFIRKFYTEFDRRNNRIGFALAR
Assay: Inhibitory activity against human plasma renin.
Format: cell-free

SMILES	IC50 [nM]
CC[C@H](C)[C@H](NC(=O)C[C@@H](O)[C@H](CC(C)C)NC(=O)[C@H](Cc1c[nH]cn1)NC(=O)[C@H](Cc1ccccc1)NC(=O)OC(C)(C)C)C(=O)NCc1ccccn1	330
CC[C@H](C)[C@H](NC(=O)C(F)(F)[C@@H](N)[C@H](CC(C)C)NC(=O)[C@H](Cc1cnc[nH]1)NC(=O)[C@H](Cc1ccccc1)NC(=O)OC(C)(C)C)C(=O)NCc1ccccn1	2800
CC[C@H](C)[C@H](NC(=O)C(F)(F)[C@H](N)[C@H](CC(C)C)NC(=O)[C@H](Cc1cnc[nH]1)NC(=O)[C@H](Cc1ccccc1)NC(=O)OC(C)(C)C)C(=O)NCc1ccccn1	340
CC[C@H](C)[C@H](NC(=O)C[C@H](N)[C@H](CC(C)C)NC(=O)[C@H](Cc1c[nH]cn1)NC(=O)[C@H](Cc1ccccc1)NC(=O)OC(C)(C)C)C(=O)NCc1ccccn1	15
CC[C@H](C)[C@H](NC(=O)C[C@@H](N)[C@H](CC(C)C)NC(=O)[C@H](Cc1c[nH]cn1)NC(=O)[C@H](Cc1ccccc1)NC(=O)OC(C)(C)C)C(=O)NCc1ccccn1	480
